Activity calls are given as the source filed them.
Columns and labels:
[1] = viability of PTEN-deleted HCT116 cells – cell-based, HCT116 PTEN knockout, dose response (AID 1047); assay type: functional;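 further: HCT116 colon tumor cells with PTEN knocked out; cells exposed to compound for 60 hours before readout; potency for loss of cell viability measured by luminescence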
[2] = viability of HCT116 lacking mutant beta-catenin – cell-based, human colon tumor, dose response (AID 1045); assay type: functional;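 further: HCT116 colon tumor cells with beta catenin knocked out; cells exposed to compound for 60 hours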
[3] = non-specific 3'UTR reporter inhibition in Clone20-Shn3RL – cell-based, Renilla luciferase, cherry-picked, counter-screen for Shn3 inhibitor project, dose response (AID 624133); assay type: functional
Coagulation factor XII = target: T1, Coagulation factor XII (Homo sapiens, UniProt P00748); assay type: functional;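 further: activated factor XIIa alpha cleaving a fluorogenic AMC peptide substrate; inhibitor potency from loss of enzyme activity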
T1 sequence (P00748 whole entry): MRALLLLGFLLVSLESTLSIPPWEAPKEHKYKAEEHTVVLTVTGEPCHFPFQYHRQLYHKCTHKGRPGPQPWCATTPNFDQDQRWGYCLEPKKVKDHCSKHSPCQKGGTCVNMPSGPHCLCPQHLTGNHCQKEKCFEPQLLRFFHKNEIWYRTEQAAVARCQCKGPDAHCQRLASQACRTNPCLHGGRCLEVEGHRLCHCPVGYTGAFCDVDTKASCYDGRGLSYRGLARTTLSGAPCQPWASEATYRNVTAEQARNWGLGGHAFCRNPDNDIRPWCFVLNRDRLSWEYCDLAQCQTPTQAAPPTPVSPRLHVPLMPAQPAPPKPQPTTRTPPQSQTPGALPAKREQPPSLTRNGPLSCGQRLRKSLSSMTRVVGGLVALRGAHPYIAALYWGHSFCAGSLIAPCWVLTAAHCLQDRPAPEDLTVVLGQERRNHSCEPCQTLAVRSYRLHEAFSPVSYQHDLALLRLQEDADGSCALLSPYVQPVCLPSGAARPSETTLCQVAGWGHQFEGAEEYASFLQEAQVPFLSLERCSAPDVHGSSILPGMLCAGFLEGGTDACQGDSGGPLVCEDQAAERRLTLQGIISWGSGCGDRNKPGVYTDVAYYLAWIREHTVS

[4] = loss of viability in HepG2 cells – cell-based, CellTiter-Glo, cherry-picked, cytotoxicity control for Shn3 inhibitor project, dose response (AID 624134); assay type: functional
[5] = target: T2, Heat shock factor protein 1 (Mus musculus, UniProt P38532); assay: enhancement of HSF1-driven luciferase signal – cell-based, NIH3T3, luminescence, dose retest, confirmation (AID 435004); assay type: functional;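 further: stress induced by proteasome inhibitor MG132 added 30 min after compound; luciferase reporter driven by HSF1 response element in NIH3T3 cells; actives raise luminescence as potentiators of the MG132 stress response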
T2 sequence (P38532 whole entry): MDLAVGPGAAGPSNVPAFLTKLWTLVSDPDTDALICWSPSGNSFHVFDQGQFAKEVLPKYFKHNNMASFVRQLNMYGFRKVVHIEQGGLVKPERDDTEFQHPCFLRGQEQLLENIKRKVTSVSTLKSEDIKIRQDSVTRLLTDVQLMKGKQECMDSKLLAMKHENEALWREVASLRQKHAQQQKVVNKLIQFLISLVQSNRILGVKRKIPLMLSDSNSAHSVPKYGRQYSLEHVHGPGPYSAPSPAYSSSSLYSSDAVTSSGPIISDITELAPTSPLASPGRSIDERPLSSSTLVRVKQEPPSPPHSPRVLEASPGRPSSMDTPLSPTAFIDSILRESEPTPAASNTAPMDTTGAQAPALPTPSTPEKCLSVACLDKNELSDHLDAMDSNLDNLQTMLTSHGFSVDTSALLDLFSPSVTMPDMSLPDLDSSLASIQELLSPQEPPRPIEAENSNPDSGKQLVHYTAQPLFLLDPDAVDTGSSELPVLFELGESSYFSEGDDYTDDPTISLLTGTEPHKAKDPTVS

[6] = reduction of Shn3 3'UTR-driven luciferase in osteoblasts – cell-based, Clone20 osteoblasts, firefly luciferase, cherry-picked, dose response (AID 624132); assay type: functional;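 further: firefly luciferase luminescence from reporter carrying the Shn3 3'UTR in osteoblasts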
[7] = target: Ras and Rab interactor 1/Tyrosine-protein kinase ABL1 (Homo sapiens, UniProt P00519+Q13671); assay type: functional;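 further: biochemical TR-FRET dose-response test measuring inhibition of binding between Rin1 and Abl proteins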
[8] = target: T3, Short transient receptor potential channel 4 (Mus musculus, UniProt Q9QUQ5); assay: block of DAMGO-driven TRPC4 calcium entry – cell-based, HEK293 TRPC4/mu-opioid, Fluo-4 calcium, dose response (AID 434942); assay type: functional;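 further: potency of inhibitors blocking the TRPC4 calcium response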
T3 sequence (Q9QUQ5 whole entry): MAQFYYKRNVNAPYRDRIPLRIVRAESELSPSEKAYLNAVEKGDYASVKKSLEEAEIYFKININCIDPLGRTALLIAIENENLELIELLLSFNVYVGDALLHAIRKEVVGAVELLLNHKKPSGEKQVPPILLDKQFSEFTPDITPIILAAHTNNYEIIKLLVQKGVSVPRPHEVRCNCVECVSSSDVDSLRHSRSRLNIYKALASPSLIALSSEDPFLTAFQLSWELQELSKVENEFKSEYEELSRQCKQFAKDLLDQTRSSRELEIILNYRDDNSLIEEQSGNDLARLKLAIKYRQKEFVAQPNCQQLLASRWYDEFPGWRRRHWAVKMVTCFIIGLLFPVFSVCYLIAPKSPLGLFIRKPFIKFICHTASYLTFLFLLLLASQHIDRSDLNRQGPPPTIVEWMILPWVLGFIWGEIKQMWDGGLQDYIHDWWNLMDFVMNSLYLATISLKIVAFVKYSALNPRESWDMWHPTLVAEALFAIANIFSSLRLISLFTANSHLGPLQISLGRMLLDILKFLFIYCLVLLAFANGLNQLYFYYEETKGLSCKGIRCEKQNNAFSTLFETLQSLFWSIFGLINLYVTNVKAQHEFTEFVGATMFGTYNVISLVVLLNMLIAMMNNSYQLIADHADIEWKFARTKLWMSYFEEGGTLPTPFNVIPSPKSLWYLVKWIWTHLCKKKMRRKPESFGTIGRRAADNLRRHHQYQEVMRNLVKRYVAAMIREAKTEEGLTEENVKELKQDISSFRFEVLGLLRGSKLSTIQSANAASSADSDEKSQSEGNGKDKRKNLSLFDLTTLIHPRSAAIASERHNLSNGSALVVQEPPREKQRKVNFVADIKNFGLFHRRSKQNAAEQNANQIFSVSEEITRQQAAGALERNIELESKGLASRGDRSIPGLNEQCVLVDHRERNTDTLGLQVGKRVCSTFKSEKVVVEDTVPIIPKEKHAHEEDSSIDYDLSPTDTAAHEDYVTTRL

[9] = alpha-synuclein stem-loop luciferase translation blockers – H4 neuroglioma cells, luminescence, confirmation (AID 1988); assay type: functional, cell-based
[10] = luciferase reporter signal suppression in cells – H4 neuroglioma cells, luminescence, dose response (AID 1990); assay type: functional, cell-based
Vero [11] = assay: cells; assay type: functional; details: Chlorocebus sabaeus
Vero [12] = assay: cells; assay type: functional, cell-based; details: Chlorocebus sabaeus
[13] = target: T4, Small ubiquitin-related modifier 1 (Homo sapiens, UniProt P63165); assay: SUMO1 protein-protein binding blockers, potency – biochemical, FRET, dose response (AID 624383); assay type: functional; details: read-out: IC50_Mean
[14] = target: T4, Small ubiquitin-related modifier 1; assay: SUMO1 protein interaction blockers, potency – biochemical, fluorescence polarization, uHTS hits, dose response (AID 624382); assay type: functional; details: read-out: IC50_Mean
[15] = target: T2, Heat shock factor protein 1; assay: decrease of HSF1-responsive luciferase luminescence – cell-based, NIH3T3, dose retest, confirmation (AID 2382); assay type: functional;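 further: NIH3T3 fibroblasts with HSF1-driven luciferase reporter stressed by proteasome inhibitor MG132; luminescence from HSF1-driven luciferase expression after 8 hours of MG132 stress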
[16] = target: T5, Corticotropin-releasing factor receptor 2/Corticotropin-releasing factor-binding protein (Homo sapiens, UniProt P24387+Q13324); assay: Dose Response confirmation of uHTS hits for small molecule antagonists of the CRF-binding protein and CRF-R2 receptor complex.; assay type: functional; details: read-out: IC50_Mean
T5 sequence (Q13324 whole entry): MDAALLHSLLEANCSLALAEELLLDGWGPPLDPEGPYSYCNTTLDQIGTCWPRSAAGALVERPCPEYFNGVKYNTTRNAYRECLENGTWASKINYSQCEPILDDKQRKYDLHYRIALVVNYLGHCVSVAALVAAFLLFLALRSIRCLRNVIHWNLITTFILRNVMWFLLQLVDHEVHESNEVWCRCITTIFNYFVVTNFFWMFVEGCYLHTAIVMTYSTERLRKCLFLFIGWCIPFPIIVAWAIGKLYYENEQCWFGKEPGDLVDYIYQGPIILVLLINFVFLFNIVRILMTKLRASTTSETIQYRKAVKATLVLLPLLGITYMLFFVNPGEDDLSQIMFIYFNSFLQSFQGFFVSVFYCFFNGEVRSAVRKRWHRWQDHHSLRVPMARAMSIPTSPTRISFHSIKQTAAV
T5 sequence (P24387 whole entry): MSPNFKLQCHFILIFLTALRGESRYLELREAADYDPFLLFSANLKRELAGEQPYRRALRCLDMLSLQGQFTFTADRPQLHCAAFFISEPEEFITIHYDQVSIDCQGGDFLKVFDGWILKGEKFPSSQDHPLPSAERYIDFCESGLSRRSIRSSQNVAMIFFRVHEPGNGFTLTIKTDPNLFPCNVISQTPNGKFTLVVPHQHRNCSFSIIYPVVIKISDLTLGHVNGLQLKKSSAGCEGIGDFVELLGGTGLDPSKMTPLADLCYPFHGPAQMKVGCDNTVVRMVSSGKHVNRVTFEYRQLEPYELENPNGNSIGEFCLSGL

[17] = blockers of CRF-binding protein–CRF-R2 complex – cell-based, uHTS hits, 384-well, dose response (AID 651639); assay type: functional, Homo sapiens; details: read-out: IC50_Mean
[18] = target: T5, Corticotropin-releasing factor receptor 2/Corticotropin-releasing factor-binding protein; assay: activators of CRF receptor 2 with binding protein – uHTS hits, confirmation (AID 602473); assay type: functional; details: read-out: EC50_Mean
Protein Wnt-3a = Protein Wnt-3a (Mus musculus, UniProt P27467); assay: antagonism of Wnt3a pathway luciferase reporter – Wnt-LIGHT cells, luminescence, selectivity assay for Gli-SUFU antagonist project, dose response (AID 651570); assay type: functional; details: read-out: IC50_Mean;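 further: Wnt-LIGHT reporter cells stimulated with conditioned medium from Wnt3a-producing cells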
[19] = activation of miR-122 Renilla sensor silencing – cell-based, Huh7 psiCHECK-miR122, Renilla luciferase, cherry-picked, dose response (AID 651956); assay type: functional;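 further: huh7 hepatoma cells stably carrying a psiCHECK-2 miR-122 sensor plasmid; renilla luciferase signal reporting endogenous miR-122 activity after 48 h compound exposure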

T4 sequence (P63165 whole entry): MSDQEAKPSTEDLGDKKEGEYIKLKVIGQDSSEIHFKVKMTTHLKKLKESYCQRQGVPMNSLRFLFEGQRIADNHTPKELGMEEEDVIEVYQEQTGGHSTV
Ras and Rab interactor 1/Tyrosine-protein kinase ABL1, sequence (P00519 whole entry): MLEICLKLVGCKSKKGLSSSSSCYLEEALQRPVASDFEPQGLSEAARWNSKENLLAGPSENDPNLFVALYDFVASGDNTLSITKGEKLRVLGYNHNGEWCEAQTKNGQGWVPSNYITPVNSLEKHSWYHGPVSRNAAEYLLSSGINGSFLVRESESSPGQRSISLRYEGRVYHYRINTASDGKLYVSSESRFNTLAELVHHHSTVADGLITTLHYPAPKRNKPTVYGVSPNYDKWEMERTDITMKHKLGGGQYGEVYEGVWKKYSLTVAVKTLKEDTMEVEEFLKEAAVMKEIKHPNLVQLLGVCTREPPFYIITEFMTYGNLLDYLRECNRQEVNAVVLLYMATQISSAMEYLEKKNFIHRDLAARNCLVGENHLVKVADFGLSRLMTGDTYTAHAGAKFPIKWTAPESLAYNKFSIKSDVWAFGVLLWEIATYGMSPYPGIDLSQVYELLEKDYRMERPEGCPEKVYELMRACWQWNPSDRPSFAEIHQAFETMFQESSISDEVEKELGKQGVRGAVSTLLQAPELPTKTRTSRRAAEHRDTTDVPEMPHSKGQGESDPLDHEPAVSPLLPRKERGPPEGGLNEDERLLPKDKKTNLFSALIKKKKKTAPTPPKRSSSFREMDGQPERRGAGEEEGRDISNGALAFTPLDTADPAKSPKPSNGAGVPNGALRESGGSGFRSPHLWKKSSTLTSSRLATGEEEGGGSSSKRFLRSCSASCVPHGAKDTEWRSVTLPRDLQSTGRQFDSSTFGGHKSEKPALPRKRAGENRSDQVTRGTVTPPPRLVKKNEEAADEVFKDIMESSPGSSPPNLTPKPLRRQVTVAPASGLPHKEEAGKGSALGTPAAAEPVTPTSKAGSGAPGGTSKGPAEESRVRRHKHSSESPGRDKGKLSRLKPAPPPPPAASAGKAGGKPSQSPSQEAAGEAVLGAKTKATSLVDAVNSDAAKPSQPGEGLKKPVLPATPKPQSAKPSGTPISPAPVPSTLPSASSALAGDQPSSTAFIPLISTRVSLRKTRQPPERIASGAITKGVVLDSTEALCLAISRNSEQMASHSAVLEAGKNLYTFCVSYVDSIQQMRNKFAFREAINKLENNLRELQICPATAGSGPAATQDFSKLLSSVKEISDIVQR
Ras and Rab interactor 1/Tyrosine-protein kinase ABL1, sequence (Q13671 whole entry): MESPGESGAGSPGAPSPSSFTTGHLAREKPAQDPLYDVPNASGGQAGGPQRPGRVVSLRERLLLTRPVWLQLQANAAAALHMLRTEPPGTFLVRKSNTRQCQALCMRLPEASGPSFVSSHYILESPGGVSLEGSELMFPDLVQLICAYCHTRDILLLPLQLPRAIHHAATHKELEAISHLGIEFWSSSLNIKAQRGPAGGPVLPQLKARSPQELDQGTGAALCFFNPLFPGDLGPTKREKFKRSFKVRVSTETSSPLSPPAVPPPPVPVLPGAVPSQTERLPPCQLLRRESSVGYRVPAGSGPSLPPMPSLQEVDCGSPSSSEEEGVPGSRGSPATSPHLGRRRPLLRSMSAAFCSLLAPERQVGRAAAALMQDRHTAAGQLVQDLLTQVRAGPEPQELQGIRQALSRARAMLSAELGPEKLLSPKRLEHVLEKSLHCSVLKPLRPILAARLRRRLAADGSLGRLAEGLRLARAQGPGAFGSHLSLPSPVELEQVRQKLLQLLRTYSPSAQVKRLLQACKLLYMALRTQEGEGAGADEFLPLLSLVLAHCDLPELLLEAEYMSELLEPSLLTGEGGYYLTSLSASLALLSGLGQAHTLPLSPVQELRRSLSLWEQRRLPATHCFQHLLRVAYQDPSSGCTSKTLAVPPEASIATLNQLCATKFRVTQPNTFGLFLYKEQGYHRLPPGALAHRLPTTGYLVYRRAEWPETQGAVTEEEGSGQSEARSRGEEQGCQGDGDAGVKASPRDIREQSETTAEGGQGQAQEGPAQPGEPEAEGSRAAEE
Protein Wnt-3a, sequence (P27467 whole entry): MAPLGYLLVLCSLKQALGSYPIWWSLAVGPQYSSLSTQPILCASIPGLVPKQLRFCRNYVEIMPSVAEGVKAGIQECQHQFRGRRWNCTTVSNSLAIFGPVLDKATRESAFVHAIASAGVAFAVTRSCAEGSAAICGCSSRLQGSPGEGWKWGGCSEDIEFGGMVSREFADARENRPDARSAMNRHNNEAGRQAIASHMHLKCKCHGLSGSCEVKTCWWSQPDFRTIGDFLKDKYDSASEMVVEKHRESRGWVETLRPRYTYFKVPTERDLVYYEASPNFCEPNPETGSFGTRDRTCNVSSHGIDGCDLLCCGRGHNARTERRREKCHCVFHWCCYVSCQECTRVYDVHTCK

O=C(CN(C(=O)c1ccccc1Cl)C1CCCCC1)Nc1ccc(Cl)c([N+](=O)[O-])c1
EC50 [1]: 16.1 µM (active)
EC50 [2]: 17.4 µM (active)
AC50 [3]: 10.8 µM (active)
IC50 (Coagulation factor XII): > 50 µM (inactive)
AC50 [4]: 63.7 µM (active)
EC50 [5]: > 260 µM (inactive)
AC50 [6]: 5.1 µM (active)

CCOc1ccccc1N(C(=O)c1snc(C(N)=O)c1N)C(C(=O)NCc1ccccc1)c1ccc(O)cc1 (stereo not given)
IC50 [7]: > 73.5 µM (inactive)
EC50 [8]: 4.22 µM (active)

O=C(NC1CCCc2c1cnn2-c1ccccc1F)c1ccccn1 (stereo not given)
EC50 [9]: 57.4 µM (active)
EC50 [10]: > 120 µM (not active)
CC50 (Vero [11]): > 25 µM (active)
IC50 (Vero [12]): 5.73 µM (active)

C=C(C)C(=O)Nc1ccc2c(c1)OCCOCCOCCO2
IC50 [13]: 1.74 µM (active)
IC50 [14]: > 66.6 µM (inactive)

COc1cccc(CNc2ccc(S(N)(=O)=O)cc2)c1OC
IC50 (Coagulation factor XII): > 50 µM (inactive)
EC50 [15]: > 195 µM (not active)

CCOC(=O)c1c(-c2ccc(OC)c(OC)c2)csc1NC(=O)C1CCCO1 (stereo not given)
IC50 [16]: 3.95 µM (active)
IC50 [17]: > 20 µM (inactive)
EC50 [18]: > 53 µM (inactive)

CCOC(CN=c1nc(N(C)C)ss1)OCC
IC50 (Protein Wnt-3a): 40.4 µM (inactive)

CN(C)CC1CCC/C(=C/c2ccc(Cl)cc2)C1=O (stereo not given)
CC50 (Vero [11]): 21.4 µM (active)
IC50 (Vero [12]): > 25 µM (active)

CN(c1ccccc1)S(=O)(=O)c1ccc(C(=O)Nc2cccc(S(=O)(=O)N3CCOCC3)c2)cc1
AC50 [19]: 59.3 µM (active)

CC(=O)Nc1cccc(-c2ccnc3c2CC(C(=O)NCc2ccc(N4CCN(C)CC4)cc2)O3)c1 (stereo not given)
IC50 [7]: 14.4 µM (inactive)

From ChEMBL document CHEMBL1201862, “PubChem BioAssay data set” (2004)
